US20230301298A1, “Biocide Compositions” (BASF SE, priority 2020, published 2023)
Where “and” joins values, the source holds several entries; their conditions need not be identical. Equal values may be shown once.

Experiments:
[1] = Solubility of biocide in two-component solvent system (A1:A2); type: physicochemical
Protocol: Component (A1) and component (A2) were mixed and heated to a temperature in the range of 20° C. to 100° C. to obtain a solution. Respective amount of the biocide was charged to the above solution at a temperature in the range of 20° C. to 100° C. to obtain the solution containing biocide. Emulsifier and other optional ingredients were charged o to the above biocide containing solution to obtain the emulsifiable composition (C).

[2] = Solubility of azoxystrobin in three components solvent system; type: physicochemical
Protocol: Component (A1) and component (A2) were mixed and heated to a temperature in the range of 20° C. to 100° C. to obtain a solution. Respective amount of the biocide was charged to the above solution at a temperature in the range of 20° C. to 100° C. to obtain the solution containing biocide. Emulsifier and other optional ingredients were charged o to the above biocide containing solution to obtain the emulsifiable composition (C). It is evident from table 1 to 5 that the biocides can be solubilised in a combination of at least one component (A1) and at least one component (A2) and which can be further formulated to stable emulsion concentrate. It can be inferred from table 4 that the tebuconazole can be formulated to an emulsifiable concentrate compared to suspension concentrate or emulsion concentrate in aromatic solvent system. Further, table 5 discloses that a three components solvent system also aids in solubilizing the biocides or adding water to two-components solvent system can improve the solubility of the biocide(s).

[3] = solvent system 2-phenylethanol : Formic acid, molar ratio 1:2
[4] = solvent system 2-phenylethanol : Formic acid, molar ratio 2:1
[5] = solvent system 2-phenylethanol : Methyl salicylate, molar ratio 1:1
[6] = solvent system 2-phenylethanol : Methyl salicylate, molar ratio 2:1
[7] = solvent system 4-methylcyclohexanol : Methyl salicylate, molar ratio 1:2
[8] = solvent system Cyclohexanol : D,L-Lactic acid, molar ratio 1:1
[9] = solvent system Thymol : Phenyl acetic acid, molar ratio 2:1
[10] = solvent system formic acid : Methyl salicylate, molar ratio 2:1

CO/C=C(/C(=O)OC)c1ccccc1Oc1cc(Oc2ccccc2C#N)ncn1 [Azoxystrobin]
Solubility wt. % in total (C) ([1]; solvent system 2-phenoxyethanol : D,L-Lactic acid, molar ratio 1:1): 36 wt. % | Solubility wt. % in total (C) ([1]; solvent system 2-phenoxyethanol : D,L-lactic acid, molar ratio 1:2): 20 wt. % | Solubility wt. % in total (C) ([1]; solvent system 2-phenoxyethanol : Methyl salicylate, molar ratio 1:1): 19 wt. % | Solubility wt. % in total (C) ([1]; solvent system 2-phenoxyethanol : Veratrole, molar ratio 2:1): 23 wt. % | Solubility wt. % in total (C) ([1]; solvent system 2-phenylethanol : D,L-Lactic acid, molar ratio 1:1): 25 wt. % | Solubility wt. % in total (C) ([1]; solvent system 2-phenylethanol : D,L-Lactic acid, molar ratio 2:1): 22 wt. % | Solubility wt. % in total (C) [1, 3]: 20 wt. % | Solubility wt. % in total (C) [1, 4]: 20 wt. % | Solubility wt. % in total (C) [1, 5]: 27 wt. % | Solubility wt. % in total (C) ([1]; solvent system 2-phenylethanol : Methyl salicylate, molar ratio 1:2): 25 wt. % and 24 wt. % | Solubility wt. % in total (C) [1, 6]: 27 wt. % and 23 wt. % | Solubility wt. % in total (C) ([1]; solvent system 2-phenylethanol : Phenyl acetic acid, molar ratio 2:1): 25 wt. % | Solubility wt. % in total (C) ([1]; solvent system 4-isopropylbenzylalcohol : Phenyl acetic acid, molar ratio 2:1): 24 wt. % | Solubility wt. % in total (C) ([1]; solvent system 4-methylcyclohexanol : Hydroxy pivalic acid, molar ratio 2:1): 24 wt. % | Solubility wt. % in total (C) [1, 7]: 20 wt. % | Solubility wt. % in total (C) ([1]; solvent system Carvacrol : 2-ethylphenol, molar ratio 1:2): <49 wt. % | Solubility wt. % in total (C) [1, 8]: 20 wt. % | Solubility wt. % in total (C) ([1]; solvent system Cyclohexanol : D,L-Lactic acid, molar ratio 1:2): 20 wt. % | Solubility wt. % in total (C) ([1]; solvent system Cyclohexanol : Hydroxy pivalic acid, molar ratio 2:1): 21 wt. % | Solubility wt. % in total (C) ([1]; solvent system D,L-Lactic acid : 1,2-dimethoxy benzene, molar ratio 2:1): 32 wt. % | Solubility wt. % in total (C) ([1]; solvent system D,L-Lactic acid : 2-phenoxyethanol, molar ratio 1:1): 23 wt. % | Solubility wt. % in total (C) ([1]; solvent system D,L-Lactic acid : 4-acetylanisole, molar ratio 2:1): 22 wt. % | Solubility wt. % in total (C) ([1]; solvent system D,L-Lactic acid : 4-isopropylbenzyl alcohol, molar ratio 2:1): 33 wt. % | Solubility wt. % in total (C) ([1]; solvent system D,L-Lactic acid : Veratrole, molar ratio 2:1): 24 wt. % | Solubility wt. % in total (C) ([1]; solvent system Formic acid : 1,2-dimethoxy benzene, molar ratio 2:1): 49 wt. % | Solubility wt. % in total (C) ([1]; solvent system Thymol : (L)-menthol, molar ratio 1:1): 28 wt. % | Solubility wt. % in total (C) [1, 9]: 60 wt. % | Solubility wt. % in total (C) ([1]; solvent system formic acid : Methyl salicylate, molar ratio 1:2): 27 wt. % | Solubility wt. % in total (C) [1, 10]: 40 wt. % | Solubility of Azoxystrobin wt. % in total (C) ([2]; 2-Phenoxyethanol:Methyl Salicylate:Water (tap), molar ratio 1:1:0.5): 24 wt. % | Solubility of Azoxystrobin wt. % in total (C) ([2]; 2-Phenoxyethanol:Methyl salicylate:D,L-Lactic acid, molar ratio 1:1:2): 29 wt. % | Solubility of Azoxystrobin wt. % in total (C) ([2]; 2-Phenoxyethanol:Veratrole:D,L-Lactic acid, molar ratio 1:1:2): 21 wt. % | Solubility of Azoxystrobin wt. % in total (C) ([2]; 2-Phenoxyethanol:Veratrole:Water (tap), molar ratio 1:2:0.5): 25 wt. % | Solubility of Azoxystrobin wt. % in total (C) ([2]; 2-Phenylethanol:Methyl Salicylate:Water (tap), molar ratio 1:1:0.5): 25 wt. % | Solubility of Azoxystrobin wt. % in total (C) ([2]; 2-Phenylethanol:phenyl acetic acid:Water (tap), molar ratio 2:1:0.5): 25 wt. %

CS(=O)(=O)c1ccc(C(=O)C2C(=O)CCCC2=O)c([N+](=O)[O-])c1 [Mesotrione]
Solubility wt. % in total (C) [1, 9]: 20 wt. %

CC(C)(C)C(O)(CCc1ccc(Cl)cc1)Cn1cncn1 (stereo not shown) [Tebuconazole]
Solubility wt. % in total (C) ([1]; solvent system 2-phenylethanol : Formic acid, molar ratio 1:1): 40 wt. % | Solubility wt. % in total (C) [1, 3]: 40 wt. % | Solubility wt. % in total (C) [1, 4]: 35 wt. % | Solubility wt. % in total (C) [1, 5]: 38 wt. % | Solubility wt. % in total (C) [1, 6]: 42 wt. % | Solubility wt. % in total (C) [1, 7]: 35 wt. % | Solubility wt. % in total (C) [1, 8]: 47 wt. % | Solubility wt. % in total (C) ([1]; solvent system Cyclohexanol : Methyl salicylate, molar ratio 1:2): 38 wt. % | Solubility wt. % in total (C) [1, 9]: 36 wt. % | Solubility wt. % in total (C) [1, 10]: 50 wt. %
